Inhibition data for six compounds are collected here from ChEMBL document CHEMBL3132769, “Fragment growing to retain or alter the selectivity of anchored kinase hinge-binding fragments” (Medchemcomm, 2014).

Assay [1] has as its target Serine/threonine-protein kinase MARK1 (Homo sapiens) (UniProt Q9P0L2). The assay is described as follows: Inhibition of human full length MARK1 expressed in baculovirus assessed as substrate phosphorylation using fluorescence-labelled peptides as substrate at 8 uM after 90 mins by microfluidic peptide phosphorylation assay.
Assay [2] concerns the target T1, Serine/threonine-protein kinase BRSK1 (Homo sapiens) (UniProt Q8TDC3).
T1 sequence (whole entry): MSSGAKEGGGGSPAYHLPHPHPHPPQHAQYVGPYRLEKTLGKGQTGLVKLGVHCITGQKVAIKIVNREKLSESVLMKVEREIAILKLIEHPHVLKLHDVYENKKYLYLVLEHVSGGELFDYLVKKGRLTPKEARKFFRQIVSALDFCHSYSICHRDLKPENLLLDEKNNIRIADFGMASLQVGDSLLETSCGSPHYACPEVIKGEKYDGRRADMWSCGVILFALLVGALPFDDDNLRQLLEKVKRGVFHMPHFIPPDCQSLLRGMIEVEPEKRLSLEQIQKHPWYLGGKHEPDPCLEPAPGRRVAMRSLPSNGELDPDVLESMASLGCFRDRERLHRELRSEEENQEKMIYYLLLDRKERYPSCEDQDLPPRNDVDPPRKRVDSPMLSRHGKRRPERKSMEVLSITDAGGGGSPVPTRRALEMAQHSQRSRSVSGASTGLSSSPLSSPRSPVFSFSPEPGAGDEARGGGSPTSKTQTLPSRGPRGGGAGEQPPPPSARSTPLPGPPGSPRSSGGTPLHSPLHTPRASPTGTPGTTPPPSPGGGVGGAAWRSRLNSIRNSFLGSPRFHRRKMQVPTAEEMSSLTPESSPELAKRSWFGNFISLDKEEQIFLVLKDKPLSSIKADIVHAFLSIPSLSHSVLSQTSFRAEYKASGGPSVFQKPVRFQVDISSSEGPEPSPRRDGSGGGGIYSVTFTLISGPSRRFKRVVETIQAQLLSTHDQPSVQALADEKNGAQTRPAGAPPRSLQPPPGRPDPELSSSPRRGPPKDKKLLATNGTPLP
As to the kind of experiment: Inhibition of human full length BRSK1 expressed in baculovirus assessed as substrate phosphorylation using fluorescence-labelled peptides as substrate at 8 uM after 90 mins by microfluidic peptide phosphorylation assay.

For another assay, the species on record is Homo sapiens. The assay is described as follows: Inhibition of human P70S6K catalytic domain expressed in baculovirus assessed as substrate phosphorylation using fluorescence-labelled peptides as substrate at 8 uM after 90 mins by microfluidic peptide phosphorylation assay.
Assay [3] has as its target T2, Mitogen-activated protein kinase 12 (Homo sapiens) (UniProt P53778).
T2 sequence (whole entry): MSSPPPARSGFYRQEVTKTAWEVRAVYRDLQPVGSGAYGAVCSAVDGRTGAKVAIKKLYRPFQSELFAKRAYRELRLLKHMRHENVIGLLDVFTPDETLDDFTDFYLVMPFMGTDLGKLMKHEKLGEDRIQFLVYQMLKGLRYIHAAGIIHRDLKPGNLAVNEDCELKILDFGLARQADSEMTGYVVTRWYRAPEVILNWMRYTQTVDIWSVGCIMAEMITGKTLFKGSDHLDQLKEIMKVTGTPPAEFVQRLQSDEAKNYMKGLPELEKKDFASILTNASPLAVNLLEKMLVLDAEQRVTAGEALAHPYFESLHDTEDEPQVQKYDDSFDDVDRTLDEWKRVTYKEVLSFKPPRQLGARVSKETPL
The assay is described as follows: Inhibition of human full length p38 gamma expressed in Escherichia coli cell assessed as substrate phosphorylation using fluorescence-labelled peptides as substrate at 0.1 uM after 90 mins by microfluidic peptide phosphorylation assay.

Assay [4] concerns the target MAP kinase p38 (Homo sapiens) (UniProt O15264+Q15759+Q16539+P53778). As to the kind of experiment: Inhibition of human full length p38 beta2 expressed in Escherichia coli cell assessed as substrate phosphorylation using fluorescence-labelled peptides as substrate at 0.06 uM after 90 mins by microfluidic peptide phosphorylation assay.
Assay [5] has as its target Glycogen synthase kinase-3 beta (Homo sapiens) (UniProt P49841). The assay is described as follows: Inhibition of human full length GSK-3 beta expressed in baculovirus assessed as substrate phosphorylation using fluorescence-labelled peptides as substrate at 0.2 uM after 90 mins by microfluidic peptide phosphorylation assay.
Assay [6] addresses Protein kinase C theta type (Homo sapiens) (UniProt Q04759). The assay is described as follows: Inhibition of human truncated PKC theta expressed in baculovirus assessed as substrate phosphorylation using fluorescence-labelled peptides as substrate at 70 uM after 90 mins by microfluidic peptide phosphorylation assay.
For assay [7], the target named is T3, Cytoplasmic tyrosine-protein kinase BMX (Homo sapiens) (UniProt P51813).
T3 sequence (whole entry): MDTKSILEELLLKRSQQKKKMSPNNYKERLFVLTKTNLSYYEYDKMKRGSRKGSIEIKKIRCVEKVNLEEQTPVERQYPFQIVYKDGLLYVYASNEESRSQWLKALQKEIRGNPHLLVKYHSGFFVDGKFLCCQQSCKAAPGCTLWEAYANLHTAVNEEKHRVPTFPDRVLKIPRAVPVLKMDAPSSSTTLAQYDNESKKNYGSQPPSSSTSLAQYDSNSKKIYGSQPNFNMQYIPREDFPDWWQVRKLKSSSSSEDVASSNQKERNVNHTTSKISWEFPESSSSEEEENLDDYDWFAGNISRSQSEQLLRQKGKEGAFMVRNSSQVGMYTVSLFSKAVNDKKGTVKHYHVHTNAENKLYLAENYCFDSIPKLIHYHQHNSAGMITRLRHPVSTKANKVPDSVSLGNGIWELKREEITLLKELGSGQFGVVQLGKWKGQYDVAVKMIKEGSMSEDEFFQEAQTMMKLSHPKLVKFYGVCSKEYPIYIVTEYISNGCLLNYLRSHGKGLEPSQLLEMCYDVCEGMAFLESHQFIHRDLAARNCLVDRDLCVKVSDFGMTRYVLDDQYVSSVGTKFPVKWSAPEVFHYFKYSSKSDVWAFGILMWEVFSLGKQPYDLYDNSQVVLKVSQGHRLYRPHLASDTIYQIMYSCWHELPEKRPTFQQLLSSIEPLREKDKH
The assay is described as follows: Inhibition of human full length BMX expressed in baculovirus assessed as substrate phosphorylation using fluorescence-labelled peptides as substrate at 70 uM after 90 mins by microfluidic peptide phosphorylation assay.

Assay [8] deals with Serine/threonine-protein kinase pim-1 (Homo sapiens) (UniProt P11309). The assay is described as follows: Inhibition of human full length PIM1 expressed in baculovirus assessed as substrate phosphorylation using fluorescence-labelled peptides as substrate at […] after 90 mins by microfluidic peptide phosphorylation assay.
Sequence of Serine/threonine-protein kinase pim-1 (Homo sapiens) (P11309 whole entry, looked up): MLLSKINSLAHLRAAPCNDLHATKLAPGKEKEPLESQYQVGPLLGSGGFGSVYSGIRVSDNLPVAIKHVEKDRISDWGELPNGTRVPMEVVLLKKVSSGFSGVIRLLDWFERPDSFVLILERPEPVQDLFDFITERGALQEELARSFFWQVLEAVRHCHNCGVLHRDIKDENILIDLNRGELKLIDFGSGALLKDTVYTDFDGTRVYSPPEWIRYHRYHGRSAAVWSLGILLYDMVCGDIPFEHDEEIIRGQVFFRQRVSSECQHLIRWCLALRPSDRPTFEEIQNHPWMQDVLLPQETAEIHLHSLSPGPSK

Sequence of Serine/threonine-protein kinase MARK1 (Homo sapiens) (Q9P0L2 whole entry, looked up): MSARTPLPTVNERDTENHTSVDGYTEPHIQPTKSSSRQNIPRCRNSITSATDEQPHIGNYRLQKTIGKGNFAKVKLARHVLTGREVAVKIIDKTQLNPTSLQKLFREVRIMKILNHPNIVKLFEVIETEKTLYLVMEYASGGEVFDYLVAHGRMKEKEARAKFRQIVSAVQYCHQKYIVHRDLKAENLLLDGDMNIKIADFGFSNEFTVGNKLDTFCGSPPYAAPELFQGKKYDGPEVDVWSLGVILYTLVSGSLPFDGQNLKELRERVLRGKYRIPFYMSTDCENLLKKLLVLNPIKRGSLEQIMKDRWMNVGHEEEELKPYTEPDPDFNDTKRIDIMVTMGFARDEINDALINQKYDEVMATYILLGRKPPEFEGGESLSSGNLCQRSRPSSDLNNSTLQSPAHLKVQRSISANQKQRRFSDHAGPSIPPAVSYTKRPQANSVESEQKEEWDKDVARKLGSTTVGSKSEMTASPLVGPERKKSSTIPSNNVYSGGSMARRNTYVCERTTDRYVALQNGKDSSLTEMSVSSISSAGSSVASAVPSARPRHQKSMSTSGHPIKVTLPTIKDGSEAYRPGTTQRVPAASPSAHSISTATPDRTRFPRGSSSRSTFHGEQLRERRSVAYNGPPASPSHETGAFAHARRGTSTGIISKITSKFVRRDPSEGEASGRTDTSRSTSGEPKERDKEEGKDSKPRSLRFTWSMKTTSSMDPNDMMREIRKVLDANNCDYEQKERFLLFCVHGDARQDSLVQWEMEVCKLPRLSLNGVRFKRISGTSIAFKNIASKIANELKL
Sequence of Protein kinase C theta type (Homo sapiens) (Q04759 whole entry, looked up, the tested form may be a part): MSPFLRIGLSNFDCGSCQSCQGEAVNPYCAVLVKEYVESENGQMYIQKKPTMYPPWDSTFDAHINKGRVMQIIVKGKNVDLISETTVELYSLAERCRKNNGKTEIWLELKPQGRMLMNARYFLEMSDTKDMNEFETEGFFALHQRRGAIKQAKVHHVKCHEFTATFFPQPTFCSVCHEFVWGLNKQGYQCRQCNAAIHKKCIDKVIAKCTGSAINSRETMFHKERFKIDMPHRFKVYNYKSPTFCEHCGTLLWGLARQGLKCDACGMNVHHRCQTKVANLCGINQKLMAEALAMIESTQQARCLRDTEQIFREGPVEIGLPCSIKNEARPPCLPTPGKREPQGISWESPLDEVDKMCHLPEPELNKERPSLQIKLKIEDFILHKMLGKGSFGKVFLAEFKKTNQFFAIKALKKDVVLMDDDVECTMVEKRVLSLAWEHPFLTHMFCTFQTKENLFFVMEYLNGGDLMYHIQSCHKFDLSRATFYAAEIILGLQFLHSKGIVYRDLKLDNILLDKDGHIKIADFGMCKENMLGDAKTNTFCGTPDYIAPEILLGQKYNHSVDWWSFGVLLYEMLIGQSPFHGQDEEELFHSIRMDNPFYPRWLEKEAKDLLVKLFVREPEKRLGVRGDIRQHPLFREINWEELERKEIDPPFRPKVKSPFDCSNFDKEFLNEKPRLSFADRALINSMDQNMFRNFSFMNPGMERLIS
Sequence of Glycogen synthase kinase-3 beta (Homo sapiens) (P49841 whole entry, looked up, the tested form may be a part): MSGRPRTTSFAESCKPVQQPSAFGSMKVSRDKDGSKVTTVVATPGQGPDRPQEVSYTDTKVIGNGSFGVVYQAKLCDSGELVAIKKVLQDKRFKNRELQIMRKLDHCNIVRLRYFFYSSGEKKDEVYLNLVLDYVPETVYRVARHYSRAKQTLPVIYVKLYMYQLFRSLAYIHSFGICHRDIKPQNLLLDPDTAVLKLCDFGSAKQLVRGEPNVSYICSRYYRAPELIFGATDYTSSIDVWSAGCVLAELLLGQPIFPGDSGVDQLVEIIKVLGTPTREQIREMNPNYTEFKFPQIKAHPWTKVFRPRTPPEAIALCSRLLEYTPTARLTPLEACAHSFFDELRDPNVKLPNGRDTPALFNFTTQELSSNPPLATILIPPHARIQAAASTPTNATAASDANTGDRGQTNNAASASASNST
Sequence of MAP kinase p38 (Homo sapiens) (O15264 whole entry, looked up, one chain of several): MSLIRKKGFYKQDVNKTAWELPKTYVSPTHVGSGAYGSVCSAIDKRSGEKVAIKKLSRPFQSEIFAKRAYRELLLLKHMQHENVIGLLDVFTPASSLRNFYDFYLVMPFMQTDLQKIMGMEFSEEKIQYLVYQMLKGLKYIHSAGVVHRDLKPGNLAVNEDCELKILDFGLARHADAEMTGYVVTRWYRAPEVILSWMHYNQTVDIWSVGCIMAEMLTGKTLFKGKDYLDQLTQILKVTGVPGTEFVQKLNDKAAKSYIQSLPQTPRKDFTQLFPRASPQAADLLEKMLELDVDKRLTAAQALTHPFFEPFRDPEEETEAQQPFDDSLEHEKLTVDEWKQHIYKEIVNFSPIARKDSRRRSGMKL
Sequence of MAP kinase p38 (Homo sapiens) (Q15759 whole entry, looked up, one chain of several): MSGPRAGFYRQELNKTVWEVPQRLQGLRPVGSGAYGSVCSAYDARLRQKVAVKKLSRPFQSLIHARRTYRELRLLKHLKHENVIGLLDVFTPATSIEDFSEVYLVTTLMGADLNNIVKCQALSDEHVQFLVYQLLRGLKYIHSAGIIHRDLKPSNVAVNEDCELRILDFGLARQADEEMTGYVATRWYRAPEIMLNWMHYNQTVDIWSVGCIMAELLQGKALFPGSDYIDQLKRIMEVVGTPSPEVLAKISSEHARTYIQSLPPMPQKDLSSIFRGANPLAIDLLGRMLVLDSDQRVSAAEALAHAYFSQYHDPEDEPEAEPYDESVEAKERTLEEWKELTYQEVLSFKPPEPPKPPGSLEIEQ
Sequence of MAP kinase p38 (Homo sapiens) (Q16539 whole entry, looked up, one chain of several): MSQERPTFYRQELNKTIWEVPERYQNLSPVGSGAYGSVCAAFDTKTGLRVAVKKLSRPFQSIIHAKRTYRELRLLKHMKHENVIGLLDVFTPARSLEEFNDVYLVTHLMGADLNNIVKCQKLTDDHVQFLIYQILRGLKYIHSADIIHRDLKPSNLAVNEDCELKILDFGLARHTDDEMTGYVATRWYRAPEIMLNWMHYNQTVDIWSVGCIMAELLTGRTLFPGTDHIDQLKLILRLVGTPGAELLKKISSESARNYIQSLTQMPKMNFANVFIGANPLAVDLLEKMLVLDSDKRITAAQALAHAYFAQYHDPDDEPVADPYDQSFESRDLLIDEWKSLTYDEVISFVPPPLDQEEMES

In the case of `NCC1CCN(c2ncnc3[nH]ccc23)CC1`, the figures for the inhibition (in [1]; in [2]; in the assay listed under Homo sapiens) were 74%, 56.5% and 68%, respectively.

In the case of `C[C@H](CN(C)C)Oc1nc(Nc2cc3cccc(Cl)c3cn2)cnc1C#N`, the inhibition in [3] turned out to be 5.5%.

Turning to `NC1(Cc2ccc(Cl)cc2)CCN(c2ncnc3[nH]ccc23)CC1`, the inhibition in assay [4] turned out to be 9%.

`Clc1ccc(C2(c3ccc(-c4ncnc5[nH]cnc45)cc3)CCNCC2)cc1`: the inhibition in [5] stood at 3.5%.

Take `CNCc1ccc(-c2ncnc3[nH]cnc23)cc1`: the inhibition in [6] came to 67.5%; in assay [7], 0%.

As for `COC(=O)c1cnc(Nc2cnc(C#N)cn2)cc1NCC1CCNCC1`, the inhibition in [8] was 7%.

By inhibition is commonly meant the change of the read-out against control, counted positive when it falls.
